According to ChEMBL document CHEMBL1201862, “PubChem BioAssay data set” (2004):
Values belong to the compound of their own block, whether it stands above or below them. The source made the active and inactive calls.

Legend:
[1] = non-specific 3'UTR reporter inhibition in Clone20-Shn3RL – cell-based, Renilla luciferase, cherry-picked, counter-screen for Shn3 inhibitor project, dose response (AID 624133); type: functional
[2] = test system: H9c2; assay: cells; type: functional, cell-based; conditions: Rattus norvegicus, H9c2, Myocardium;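 note: confirmatory concentration-response retest of ultra-high-throughput screening hits for modulation of myocardial damage; cell death induced by hydrogen peroxide oxidative stress; compound pretreatment for 60 min then peroxide exposure for 2 h; potency is for protecting the cells against peroxide damage rather than for killing them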
[3] = loss of viability in HepG2 cells – cell-based, CellTiter-Glo, cherry-picked, cytotoxicity control for Shn3 inhibitor project, dose response (AID 624134); type: functional
[4] = reduction of Shn3 3'UTR-driven luciferase in osteoblasts – cell-based, Clone20 osteoblasts, firefly luciferase, cherry-picked, dose response (AID 624132); type: functional;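 note: firefly luciferase luminescence from reporter carrying the Shn3 3'UTR in osteoblasts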
[5] = target: T1, Protein skinhead-1 (Caenorhabditis elegans, UniProt P34707); type: functional
T1 sequence (P34707 whole entry): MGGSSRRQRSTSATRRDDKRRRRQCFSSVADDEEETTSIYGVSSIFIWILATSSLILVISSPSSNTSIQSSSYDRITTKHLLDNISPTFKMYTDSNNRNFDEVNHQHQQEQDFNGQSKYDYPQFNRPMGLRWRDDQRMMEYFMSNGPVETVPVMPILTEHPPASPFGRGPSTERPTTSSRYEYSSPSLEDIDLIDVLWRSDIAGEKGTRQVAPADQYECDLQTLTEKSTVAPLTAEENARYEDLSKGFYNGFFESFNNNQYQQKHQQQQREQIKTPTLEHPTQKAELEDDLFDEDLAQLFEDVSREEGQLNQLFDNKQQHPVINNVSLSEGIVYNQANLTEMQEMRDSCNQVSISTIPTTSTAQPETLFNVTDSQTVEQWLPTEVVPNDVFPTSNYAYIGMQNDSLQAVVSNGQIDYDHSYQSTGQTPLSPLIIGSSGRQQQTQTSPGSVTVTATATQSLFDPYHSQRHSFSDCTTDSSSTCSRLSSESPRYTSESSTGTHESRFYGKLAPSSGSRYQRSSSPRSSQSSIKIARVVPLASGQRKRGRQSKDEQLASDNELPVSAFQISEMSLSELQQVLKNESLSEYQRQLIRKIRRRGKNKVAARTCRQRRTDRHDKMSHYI

[6] = target: FAD-linked sulfhydryl oxidase ALR (Homo sapiens, UniProt P55789); assay: ALR-catalysed DTT oxidation blockers – biochemical, H2O2 detection, luminescence, cherry-pick, dose response (AID 493248)
FAD-linked sulfhydryl oxidase ALR, sequence (P55789 whole entry): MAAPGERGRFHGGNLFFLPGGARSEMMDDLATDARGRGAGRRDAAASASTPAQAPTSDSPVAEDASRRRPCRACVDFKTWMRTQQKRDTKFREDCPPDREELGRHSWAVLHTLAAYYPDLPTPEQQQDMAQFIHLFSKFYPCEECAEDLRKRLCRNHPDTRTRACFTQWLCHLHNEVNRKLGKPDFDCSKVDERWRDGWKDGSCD

[7] = target: T2, Rac GTPase-activating protein 1 (Homo sapiens, UniProt Q9H0H5); assay: blockers of MgcRacGAP-driven Rac1 GTP hydrolysis – biochemical, ADP Hunter fluorescence, primary and confirmatory, confirmation (AID 624330); type: functional
T2 sequence (Q9H0H5 whole entry): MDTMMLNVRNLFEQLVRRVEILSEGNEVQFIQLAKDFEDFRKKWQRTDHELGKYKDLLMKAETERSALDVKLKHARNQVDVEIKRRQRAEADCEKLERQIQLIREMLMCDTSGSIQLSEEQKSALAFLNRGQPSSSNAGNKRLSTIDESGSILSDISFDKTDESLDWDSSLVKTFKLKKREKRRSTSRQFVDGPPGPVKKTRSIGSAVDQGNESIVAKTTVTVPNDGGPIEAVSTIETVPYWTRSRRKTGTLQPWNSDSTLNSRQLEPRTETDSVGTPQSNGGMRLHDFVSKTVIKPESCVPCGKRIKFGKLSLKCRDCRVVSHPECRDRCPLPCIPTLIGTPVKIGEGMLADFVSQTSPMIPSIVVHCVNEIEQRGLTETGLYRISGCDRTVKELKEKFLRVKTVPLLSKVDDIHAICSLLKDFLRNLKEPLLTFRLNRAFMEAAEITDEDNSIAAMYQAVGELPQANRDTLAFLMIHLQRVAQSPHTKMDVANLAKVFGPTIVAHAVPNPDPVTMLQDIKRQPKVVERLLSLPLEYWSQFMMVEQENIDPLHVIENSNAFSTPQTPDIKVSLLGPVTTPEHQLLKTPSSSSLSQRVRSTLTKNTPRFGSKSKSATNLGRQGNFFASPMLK

[8] = target: T3, Short transient receptor potential channel 4 (Mus musculus, UniProt Q9QUQ5); assay: calcium entry via TRPC4 opening agents – cell-based, HEK293 TRPC4/mu-opioid, Fluo-4 calcium, dose response (AID 434937); type: functional
T3 sequence (Q9QUQ5 whole entry): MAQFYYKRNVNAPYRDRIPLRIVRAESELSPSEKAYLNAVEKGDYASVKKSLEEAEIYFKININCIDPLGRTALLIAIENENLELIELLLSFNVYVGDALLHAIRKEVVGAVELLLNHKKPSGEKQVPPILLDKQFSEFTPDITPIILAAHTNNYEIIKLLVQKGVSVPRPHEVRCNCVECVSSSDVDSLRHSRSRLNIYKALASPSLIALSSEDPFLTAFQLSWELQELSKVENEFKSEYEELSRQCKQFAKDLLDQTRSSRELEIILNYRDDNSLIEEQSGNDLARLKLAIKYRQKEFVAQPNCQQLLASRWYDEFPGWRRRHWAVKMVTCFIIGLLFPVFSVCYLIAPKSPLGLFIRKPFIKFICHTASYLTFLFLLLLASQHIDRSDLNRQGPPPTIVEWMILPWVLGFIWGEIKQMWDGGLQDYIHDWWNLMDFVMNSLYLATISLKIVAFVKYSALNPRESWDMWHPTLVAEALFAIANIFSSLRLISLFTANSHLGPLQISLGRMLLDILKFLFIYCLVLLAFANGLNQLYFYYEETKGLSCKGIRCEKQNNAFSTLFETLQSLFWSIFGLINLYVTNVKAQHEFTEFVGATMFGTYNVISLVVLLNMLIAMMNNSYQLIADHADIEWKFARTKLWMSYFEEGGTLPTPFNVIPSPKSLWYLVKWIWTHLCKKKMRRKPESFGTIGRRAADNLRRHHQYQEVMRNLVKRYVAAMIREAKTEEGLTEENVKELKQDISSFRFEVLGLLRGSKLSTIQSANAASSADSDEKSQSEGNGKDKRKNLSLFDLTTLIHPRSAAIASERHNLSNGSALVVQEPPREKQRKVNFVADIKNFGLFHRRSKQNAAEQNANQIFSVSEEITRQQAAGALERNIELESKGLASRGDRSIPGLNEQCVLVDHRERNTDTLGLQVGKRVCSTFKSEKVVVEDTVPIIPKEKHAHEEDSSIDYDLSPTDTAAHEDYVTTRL

[9] = test system: INS1; assay: INS-1E survival protection against cytokine death – cell-based, luminescence, retest, dose response (AID 449756); type: functional; conditions: Rattus norvegicus;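 note: cell death triggered by IL-1 beta plus TNF-alpha plus IFN-gamma mixture; protective hits raise ATP signal compared with cytokine alone wells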
[10] = target: Cytochrome P450 2C9 (Homo sapiens, UniProt P11712)
Cytochrome P450 2C9, sequence (P11712 whole entry): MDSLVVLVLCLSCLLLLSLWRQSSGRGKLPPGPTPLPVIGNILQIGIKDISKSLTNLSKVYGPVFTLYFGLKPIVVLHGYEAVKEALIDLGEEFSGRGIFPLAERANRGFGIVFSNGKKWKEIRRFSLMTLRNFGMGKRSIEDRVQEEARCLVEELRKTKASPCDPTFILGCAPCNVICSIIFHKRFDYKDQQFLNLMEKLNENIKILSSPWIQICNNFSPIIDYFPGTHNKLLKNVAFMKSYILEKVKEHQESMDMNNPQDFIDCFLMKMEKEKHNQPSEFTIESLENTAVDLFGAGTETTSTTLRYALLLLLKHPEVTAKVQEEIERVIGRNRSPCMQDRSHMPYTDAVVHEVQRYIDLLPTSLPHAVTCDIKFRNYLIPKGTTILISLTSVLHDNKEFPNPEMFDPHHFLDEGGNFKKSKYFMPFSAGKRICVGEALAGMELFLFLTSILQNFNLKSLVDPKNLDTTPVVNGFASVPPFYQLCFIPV

[11] = target: Cytochrome P450 2D6 (Homo sapiens, UniProt P10635);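 note: CYP2D6 member of a cytochrome P450 panel assay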
Cytochrome P450 2D6, sequence (P10635 whole entry): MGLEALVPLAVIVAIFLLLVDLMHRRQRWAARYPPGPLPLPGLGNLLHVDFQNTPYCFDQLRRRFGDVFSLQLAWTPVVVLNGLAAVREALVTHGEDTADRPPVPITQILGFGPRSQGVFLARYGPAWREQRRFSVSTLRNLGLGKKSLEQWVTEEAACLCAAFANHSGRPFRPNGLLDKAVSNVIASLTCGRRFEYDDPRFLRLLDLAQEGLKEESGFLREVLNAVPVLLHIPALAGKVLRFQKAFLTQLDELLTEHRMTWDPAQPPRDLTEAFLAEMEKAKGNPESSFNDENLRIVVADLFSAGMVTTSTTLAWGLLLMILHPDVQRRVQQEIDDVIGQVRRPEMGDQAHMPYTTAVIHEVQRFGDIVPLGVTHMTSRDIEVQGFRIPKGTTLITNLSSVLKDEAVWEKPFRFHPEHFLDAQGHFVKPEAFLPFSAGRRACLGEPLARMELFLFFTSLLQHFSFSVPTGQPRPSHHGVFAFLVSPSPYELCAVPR

[12] = target: T4, Fatty acid synthase (Homo sapiens, UniProt P49327); assay: inhibition of human FAS-TE enzyme activity – biochemical, kinetic fluorescence intensity, dose response (AID 624326); type: functional;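 note: rate of fluorescence rise from hydrolysis of a fluorogenic O-methyl fluorescein ester substrate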
T4 sequence (P49327 whole entry): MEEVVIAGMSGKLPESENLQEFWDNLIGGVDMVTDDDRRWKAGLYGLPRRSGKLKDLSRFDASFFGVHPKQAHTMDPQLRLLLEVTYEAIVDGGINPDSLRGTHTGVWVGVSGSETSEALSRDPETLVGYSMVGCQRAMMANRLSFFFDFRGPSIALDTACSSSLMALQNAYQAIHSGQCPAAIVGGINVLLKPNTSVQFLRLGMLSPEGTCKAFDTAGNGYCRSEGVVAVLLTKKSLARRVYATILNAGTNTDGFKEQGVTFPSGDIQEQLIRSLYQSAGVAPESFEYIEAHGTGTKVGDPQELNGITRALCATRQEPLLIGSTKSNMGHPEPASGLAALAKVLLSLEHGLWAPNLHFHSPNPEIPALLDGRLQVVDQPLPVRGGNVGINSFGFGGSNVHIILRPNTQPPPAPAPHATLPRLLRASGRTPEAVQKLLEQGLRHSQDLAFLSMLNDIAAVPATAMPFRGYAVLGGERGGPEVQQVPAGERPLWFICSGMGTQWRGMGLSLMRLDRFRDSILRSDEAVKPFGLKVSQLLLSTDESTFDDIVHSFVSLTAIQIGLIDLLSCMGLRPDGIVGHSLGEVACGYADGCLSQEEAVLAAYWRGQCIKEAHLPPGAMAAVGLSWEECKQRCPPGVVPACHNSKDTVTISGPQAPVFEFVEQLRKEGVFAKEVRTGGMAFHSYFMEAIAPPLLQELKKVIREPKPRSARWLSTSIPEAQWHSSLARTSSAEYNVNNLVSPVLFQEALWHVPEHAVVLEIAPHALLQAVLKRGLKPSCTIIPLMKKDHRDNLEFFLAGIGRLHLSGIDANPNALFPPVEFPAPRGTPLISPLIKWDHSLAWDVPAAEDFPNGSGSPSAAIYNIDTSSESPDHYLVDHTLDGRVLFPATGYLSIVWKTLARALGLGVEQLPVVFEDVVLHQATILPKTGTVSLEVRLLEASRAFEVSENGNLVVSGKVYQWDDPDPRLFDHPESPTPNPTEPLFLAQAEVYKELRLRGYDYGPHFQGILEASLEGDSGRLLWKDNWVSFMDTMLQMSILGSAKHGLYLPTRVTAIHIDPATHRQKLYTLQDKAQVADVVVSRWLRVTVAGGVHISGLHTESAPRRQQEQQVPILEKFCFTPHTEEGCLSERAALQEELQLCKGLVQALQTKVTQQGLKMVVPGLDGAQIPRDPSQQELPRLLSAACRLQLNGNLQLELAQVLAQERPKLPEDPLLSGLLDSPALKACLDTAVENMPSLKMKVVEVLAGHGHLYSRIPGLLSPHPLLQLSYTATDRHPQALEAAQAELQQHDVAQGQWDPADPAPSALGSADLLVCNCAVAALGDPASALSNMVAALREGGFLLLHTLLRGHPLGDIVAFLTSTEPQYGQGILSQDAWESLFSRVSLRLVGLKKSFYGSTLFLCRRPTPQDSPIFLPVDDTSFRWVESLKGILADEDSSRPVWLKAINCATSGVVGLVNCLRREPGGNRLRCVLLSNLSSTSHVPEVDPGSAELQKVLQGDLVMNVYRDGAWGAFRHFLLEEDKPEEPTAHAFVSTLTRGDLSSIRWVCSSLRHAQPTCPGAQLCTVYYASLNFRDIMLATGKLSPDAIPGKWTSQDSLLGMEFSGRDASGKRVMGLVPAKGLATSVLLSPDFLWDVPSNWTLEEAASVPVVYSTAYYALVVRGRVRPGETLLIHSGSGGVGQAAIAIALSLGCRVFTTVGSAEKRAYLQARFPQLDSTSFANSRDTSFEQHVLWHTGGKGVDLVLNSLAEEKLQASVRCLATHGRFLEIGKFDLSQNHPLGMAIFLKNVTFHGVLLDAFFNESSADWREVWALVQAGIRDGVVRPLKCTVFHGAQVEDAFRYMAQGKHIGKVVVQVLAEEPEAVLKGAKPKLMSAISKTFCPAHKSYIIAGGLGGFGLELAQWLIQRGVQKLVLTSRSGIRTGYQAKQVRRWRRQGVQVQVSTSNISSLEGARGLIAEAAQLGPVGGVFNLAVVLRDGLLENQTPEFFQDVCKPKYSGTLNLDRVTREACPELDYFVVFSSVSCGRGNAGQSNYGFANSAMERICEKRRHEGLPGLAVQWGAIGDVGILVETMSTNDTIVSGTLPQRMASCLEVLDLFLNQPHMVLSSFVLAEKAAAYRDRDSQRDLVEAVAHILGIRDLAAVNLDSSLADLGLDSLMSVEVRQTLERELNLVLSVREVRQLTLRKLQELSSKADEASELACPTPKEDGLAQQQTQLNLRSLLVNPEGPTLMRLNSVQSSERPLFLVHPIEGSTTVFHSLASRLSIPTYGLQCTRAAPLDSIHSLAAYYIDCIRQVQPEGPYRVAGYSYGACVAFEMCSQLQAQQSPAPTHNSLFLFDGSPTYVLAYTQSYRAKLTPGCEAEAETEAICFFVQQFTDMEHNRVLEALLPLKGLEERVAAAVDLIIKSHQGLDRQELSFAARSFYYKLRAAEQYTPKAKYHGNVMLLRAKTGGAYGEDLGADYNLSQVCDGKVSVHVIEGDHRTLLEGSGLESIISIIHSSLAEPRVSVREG

[13] = target: T4, Fatty acid synthase; assay: inhibition of human FAS-TE enzyme activity – biochemical, endpoint fluorescence intensity, uHTS hits, dose response (AID 624327); type: functional;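 note: fluorescence from hydrolysis of an O-methyl fluorescein acyl ester substrate by the enzyme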
[14] = test system: BJ; assay: cells; type: functional, cell-based, Homo sapiens; conditions: bj

- IC50 [5]: 13.9 µM (active)
Compound: Cc1ccc(-c2nc(-c3ccncc3)no2)cc1

- AC50 [6]: 10.2 µM (active)
Compound: COc1cc(NC(=O)C(c2ccccc2)c2ccccc2)c(C(=O)O)cc1OC

- IC50 [7]: 41.6 µM (active)
Compound: Cc1ccccc1OCCn1c(S)nc2c(N)ncnc21

- IC50 [5]: 90.4 µM (inactive)
Compound: COc1ccccc1-c1nnc(-c2ccc(F)cc2)o1

- AC50 [10]: inconclusive
- AC50 [11]: 28.2 µM (inconclusive)
Compound: Cc1ccc(CNC(=O)CN2C(=O)COc3ccc(C)cc32)cc1

- AC50 [6]: 4.12 µM (active)
Compound: Cc1nn(-c2ccccc2)c(C)c1-c1cc(C(=O)N/N=C/c2ccc(O)cc2)[nH]n1

More lines, now with the values behind:

Compound: O=C(Nc1nc(-c2ccccn2)cs1)c1cccc(S(=O)(=O)N2CCOCC2)c1
- AC50 [1]: 2.89 µM (active)
- IC50 [2]: 21 µM (active)
- AC50 [3]: 5.28 µM (active)
- AC50 [4]: 1.52 µM (active)

Compound: c1ccc(CNc2ccc3c(c2)ncn3C2CCCCC2)nc1
- AC50 [6]: 1.2 µM (active)

Compound: Cc1cc(N(CCCl)CCCl)ccc1C=Cc1ccncn1
- IC50 [5]: > 100 µM (inactive)

Compound: c1ccc2sc(N3CCNCC3)nc2c1
- EC50 [8]: 0.473 µM (active)

Compound: CC(C)Oc1ccc(S(=O)(=O)N2CCCCC2)cc1NC(=O)CN1CCCC1c1cccs1 (stereo not given)
- AC50 [1]: 20.6 µM (active)
- AC50 [9]: 5.76 µM (active)
- AC50 [3]: > 70 µM (inactive)
- AC50 [4]: 7.88 µM (active)

Compound: COc1cc(/C=C/C(=O)OCC(=O)Nc2ccc3c(c2)OCO3)ccc1O
- IC50 [7]: 48.2 µM (active)

Compound: COc1ccc(C(CNC(=O)c2ccc3c(c2)OCCO3)N(C)C)cc1 (stereo not given)
- EC50 [8]: 0.237 µM (active)

Compound: Cc1ccc(S(=O)(=O)N2C[C@H]3[C@H]4C(=O)N(c5ccccc5)C(=O)[C@H]4CC(=O)[C@H]3[C@@H]2c2cccc3ccccc23)cc1
- IC50 [12]: 15.6 µM (active)
- IC50 [5]: > 100 µM (inactive)
- IC50 [13]: 21.6 µM (inactive)

Compound: COc1cccc(/C=N/n2c(=S)n(C)c3cc(C)c(C)cc32)c1OC
- AC50 [10]: inconclusive

Compound: COc1cc2c(c(OC)c1OC)-c1ccc(=O)c(O)cc1C(NC(C)=O)CC2 (stereo not given)
- EC50 [14]: 0.126 µM (inconclusive)
